According to the supplement of paper PMC13380429:
± gives the standard deviation of the averaged measurements.

Key:
Conditions in all cases: 72 h
Caco-2 [1] = assay: drug sensitivity score (DSS) for viability; higher = more toxic; extreme values may be limits of the assay
Vero E6 [2] = assay: as above
HepG2 [3] = assay: as above
Calu-3 [4] = assay: as above
U2OS [5] = assay: as above
Caco-2 [6] = assay: relative viability EC50 (midpoint between 100% and the lowest measured viability); higher = less toxic
Vero E6 [7] = assay: as above
HepG2 [8] = assay: as above
Calu-3 [9] = assay: as above
U2OS [10] = assay: as above
Caco-2 [11] = assay: cell viability relative to DMSO; higher = less toxic
Vero E6 [12] = assay: as above
HepG2 [13] = assay: as above
Calu-3 [14] = assay: as above
U2OS [15] = assay: as above

| SMILES | drug sensitivity score (Caco-2 [1]) | drug sensitivity score (Vero E6 [2]) | drug sensitivity score (HepG2 [3]) | drug sensitivity score (Calu-3 [4]) | drug sensitivity score (U2OS [5]) | relative viability EC50 (Caco-2 [6]) [µM] | relative viability EC50 (Vero E6 [7]) [µM] | relative viability EC50 (HepG2 [8]) [µM] | relative viability EC50 (Calu-3 [9]) [µM] | relative viability EC50 (U2OS [10]) [µM] | cell viability (Caco-2 [11]; 1 nM) [%] | cell viability (Caco-2 [11]; 10 nM) [%] | cell viability (Caco-2 [11]; 100 nM) [%] | cell viability (Caco-2 [11]; 1000 nM) [%] | cell viability (Caco-2 [11]; 10000 nM) [%] | cell viability (Vero E6 [12]; 1 nM) [%] | cell viability (Vero E6 [12]; 10 nM) [%] | cell viability (Vero E6 [12]; 100 nM) [%] | cell viability (Vero E6 [12]; 1000 nM) [%] | cell viability (Vero E6 [12]; 10000 nM) [%] | cell viability (HepG2 [13]; 1 nM) [%] | cell viability (HepG2 [13]; 10 nM) [%] | cell viability (HepG2 [13]; 100 nM) [%] | cell viability (HepG2 [13]; 1000 nM) [%] | cell viability (HepG2 [13]; 10000 nM) [%] | cell viability (Calu-3 [14]; 1 nM) [%] | cell viability (Calu-3 [14]; 10 nM) [%] | cell viability (Calu-3 [14]; 100 nM) [%] | cell viability (Calu-3 [14]; 1000 nM) [%] | cell viability (Calu-3 [14]; 10000 nM) [%] | cell viability (U2OS [15]; 1 nM) [%] | cell viability (U2OS [15]; 10 nM) [%] | cell viability (U2OS [15]; 100 nM) [%] | cell viability (U2OS [15]; 1000 nM) [%] | cell viability (U2OS [15]; 10000 nM) [%] |
| --- | --- | --- | --- | --- | --- | --- | --- | --- | --- | --- | --- | --- | --- | --- | --- | --- | --- | --- | --- | --- | --- | --- | --- | --- | --- | --- | --- | --- | --- | --- | --- | --- | --- | --- | --- |
| CC1(C)CC(=O)C(C2C3=C(CC(C)(C)CC3=O)Oc3ccccc32)C(=O)C1 (stereo not given) | 0 | 0 | 0 | 0 | 0 | > 10 | > 10 | > 10 | > 10 | > 10 | 99.2 | 93.7 | 96.5 | 95.8 | 99.2 | 102 | 98 | 103 | 102 | 100 | 92.1 | 103 | 97.5 | 96.8 | 102 | 93 | 98.1 | 98 | 101 | 109 | 96.7 | 101 | 95 | 98.2 | 101 |
| CC1(C)Oc2ccc(C#N)cc2[C@@H](OC2=CC(=O)CC2)[C@@H]1O [PCO-400] | 0 | 0 | 0 | 0 | 0 | > 10 | > 10 | > 10 | > 10 | > 10 | 113 | 90.5 | 99.6 | 92.8 | 103 | 102 | 97.3 | 97.7 | 102 | 94.6 | 101 | 97 | 109 | 105 | 86.9 | 96.6 | 95.9 | 110 | 102 | 103 | 107 | 95.8 | 98.8 | 90.6 | 99.8 |
| Cc1ccccc1-n1c(CF)nc2ccc(N)cc2c1=O [afloqualone] | 0 | 0 | 0 | 0 | 0 | > 10 | > 10 | > 10 | > 10 | > 10 | 98 | 102 | 104 | 101 | 110 | 105 | 98.2 | 100 | 102 | 92.4 | 100 | 94 | 100 | 83.3 | 93.7 | 98.1 | 96.8 | 101 | 108 | 109 | 98.3 | 97.9 | 102 | 98.6 | 102 |
| COc1c(-c2ccc3cc(NS(C)(=O)=O)ccc3c2)cc(-n2ccc(=O)[nH]c2=O)cc1C(C)(C)C [dasabuvir] | 0 | 0 | 0 | 0 | 0 | > 10 | > 10 | > 10 | > 10 | > 10 | 96.2 | 94.5 | 87.8 | 98.9 | 96.3 | 91.5 | 98.3 | 92.8 | 97 | 106 | 90.4 | 102 | 90.4 | 102 | 109 | 94 | 106 | 93.7 | 97.9 | 104 | 98.5 | 96.9 | 102 | 96.5 | 96.3 |
| CCOC(=O)C1=C(C)NC(C)=C(C(=O)OCC)C1c1ccccc1/C=C/C(=O)OC(C)(C)C [lacidipine] | 2.5 | 0 | 0 | 0 | 0 | > 10 | > 10 | > 10 | > 10 | > 10 | 97.4 | 91 | 90.2 | 84.7 | 79 | 92 | 99.4 | 89.7 | 99.6 | 106 | 96.2 | 102 | 96.8 | 114 | 91.9 | 97 | 89.8 | 106 | 93 | 91 | 96.6 | 95.2 | 98.5 | 92.1 | 97.5 |
| COCCCC/C(=N\OCCN)c1ccc(C(F)(F)F)cc1 [fluvoxamine] | 4 | 0 | 0 | 0 | 0 | > 10 | > 10 | > 10 | > 10 | > 10 | 124 | 109 | 84.3 | 80.6 | 94.1 | 91.6 | 103 | 98.1 | 101 | 88 | 99.3 | 93.5 | 100 | 105 | 100 | 102 | 109 | 95.6 | 96.5 | 93.7 | 104 | 97.3 | 98 | 96.4 | 98.5 |
| COc1cccc(CN(C(=O)CC(C)(C)C)[C@H]2C[C@@H](C(=O)N3CCNCC3)N(Cc3ccc4c(c3)OCO4)C2)c1 | 0 | 0 | 0 | 0 | 0 | > 10 | > 10 | > 10 | > 10 | > 10 | 98.4 | 106 | 98.3 | 102 | 87.5 | 101 | 102 | 107 | 98.2 | 95.6 | 94.8 | 96.2 | 87.2 | 104 | 91.4 | 93.6 | 98 | 95.3 | 92.4 | 102 | 95.2 | 98 | 97.3 | 97 | 90.7 |
| CN(C)CC[C@@H](c1ccc(Cl)cc1)c1ccccn1 [chlorphenamine] | 0 | 0 | 0 | 0 | 0 | > 10 | > 10 | > 10 | > 10 | > 10 | 102 ± 3.8 | 100 ± 2.9 | 102 | 98.8 ± 3.8 | 93.05 ± 0.35 | 103 ± 6.3 | 103 ± 6.7 | 99.1 ± 1.3 | 95.4 ± 3.7 | 96.8 ± 3.2 | 102 ± 2 | 113.5 ± 0.71 | 96.4 ± 2.8 | 94.7 ± 2.3 | 99.2 ± 10 | 97.8 ± 1.2 | 95.2 ± 1.8 | 93.3 ± 3.8 | 97.7 ± 3.3 | 96.4 ± 14 | 98 ± 3.7 | 97.8 ± 0.71 | 94.7 ± 1.7 | 95.2 ± 2.4 | 93 ± 2.6 |
| C[C@H]1NC(=O)NC1=O [5-methylhydantoin-(D)] | 0 | 0 | 0 | 0 | 0 | > 10 | > 10 | > 10 | > 10 | > 10 | 97.5 ± 3.3 | 94.4 ± 0.14 | 104 ± 2.3 | 95.3 ± 5.5 | 101 ± 2.6 | 97.1 ± 7.1 | 102 ± 4.5 | 96.4 ± 0.71 | 99.4 ± 0.57 | 100 ± 8 | 93 ± 4.9 | 100 ± 0.64 | 93.3 ± 5.9 | 98.1 ± 8.6 | 106 ± 2.8 | 95.5 ± 5.9 | 99.6 ± 5 | 94.5 ± 3.2 | 102 ± 3 | 101 ± 6.9 | 97.85 ± 0.49 | 100 ± 5 | 98.8 ± 5.1 | 98.2 ± 2.3 | 100 ± 2.4 |
| Nc1nc(=O)n([C@H]2C[C@H](O)[C@@H](CO)O2)cc1Cl [cytochlor] | 0.5 | 0 | 1.7 | 0.4 | 0 | > 10 | > 10 | > 10 | > 10 | > 10 | 90 | 97.6 | 77.4 | 101 | 84.6 | 100 | 98.5 | 98.8 | 98.3 | 98.7 | 114 | 105 | 113 | 93.5 | 76.5 | 91.6 | 98.1 | 102 | 95.7 | 86.3 | 97.7 | 100 | 94.4 | 100 | 92.5 |
| O=C(NC(O)C(Cl)(Cl)Cl)NC(O)C(Cl)(Cl)Cl (stereo not given) [dicloralurea] | 0 | 0 | 0 | 0 | 0 | > 10 | > 10 | > 10 | > 10 | > 10 | 96.6 | 114 | 111 | 102 | 90.1 | 97.6 | 101 | 95.2 | 92.4 | 103 | 96.2 | 107 | 109 | 104 | 97.4 | 94.1 | 96.2 | 102 | 86.9 | 99.5 | 97 | 92.4 | 97.6 | 94.4 | 103 |
| c1cc(-c2sc(-c3ccncc3)c(-c3ccncc3)c2-c2ccncc2)ccn1 [GANT-58] | 0.2 | 0 | 0 | 0 | 0 | > 10 | > 10 | > 10 | > 10 | > 10 | 105 | 99 | 94.6 | 92.6 | 86.6 | 93 | 106 | 91.7 | 96.4 | 111 | 90.9 | 102 | 97.8 | 118 | 103 | 98.3 | 94.8 | 95.3 | 88.5 | 106 | 102 | 99.2 | 99.8 | 97.8 | 99.2 |
| c1ccc(C2CN3CCSC3=N2)cc1 (stereo not given) [tetramisole] | 0.85 ± 1.2 | 0 | 0 | 0 | 0 | > 10 | > 10 | > 10 | > 10 | > 10 | 95 ± 7.1 | 102 ± 11 | 92.65 ± 0.78 | 91.9 ± 8.6 | 96.5 ± 1.7 | 93.8 ± 2.8 | 98.5 ± 1.6 | 96.2 ± 3.3 | 96.8 ± 0.57 | 101 ± 1.1 | 101.9 ± 0.14 | 95.6 ± 0.57 | 96.2 ± 3.5 | 93.1 ± 5.7 | 100 ± 4.2 | 98.7 ± 5 | 97.85 ± 0.92 | 99.7 ± 1.3 | 110 ± 12 | 94.7 ± 1.6 | 99.8 ± 1.8 | 98.2 ± 2.3 | 98.3 ± 1.8 | 97.9 ± 1.1 | 100 ± 6.9 |
